This passage reports Activity, Percent activation and Calcium response results from ChEMBL document CHEMBL3102805, “Truncated Orexin Peptides: Structure-Activity Relationship Studies” (ACS Med Chem Lett, 2013).

Assay [1] deals with T1, Orexin receptor type 2 (Homo sapiens) (UniProt O43614).
T1 sequence (whole entry): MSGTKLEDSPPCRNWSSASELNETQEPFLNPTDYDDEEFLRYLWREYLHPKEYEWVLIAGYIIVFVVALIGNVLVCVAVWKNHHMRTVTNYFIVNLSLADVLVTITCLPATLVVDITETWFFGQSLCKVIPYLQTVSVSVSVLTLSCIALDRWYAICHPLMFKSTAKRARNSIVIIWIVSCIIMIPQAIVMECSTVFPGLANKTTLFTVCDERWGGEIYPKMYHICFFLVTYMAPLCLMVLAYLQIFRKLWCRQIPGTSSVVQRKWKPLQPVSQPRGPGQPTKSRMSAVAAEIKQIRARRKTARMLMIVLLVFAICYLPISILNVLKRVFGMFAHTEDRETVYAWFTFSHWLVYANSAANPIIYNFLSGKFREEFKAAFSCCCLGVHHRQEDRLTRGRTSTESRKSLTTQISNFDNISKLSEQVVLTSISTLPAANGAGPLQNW
Kind of assay: Agonist activity at human OX2 receptor overexpressed in CHO-RD-HGA16 cells assessed as calcium mobilization at 10 uM after 15 mins by fluorescence assay relative to control. The class given is functional, cell-based.

In assay [2] the target is T2, Orexin/Hypocretin receptor type 1 (Homo sapiens) (UniProt O43613).
T2 sequence (whole entry): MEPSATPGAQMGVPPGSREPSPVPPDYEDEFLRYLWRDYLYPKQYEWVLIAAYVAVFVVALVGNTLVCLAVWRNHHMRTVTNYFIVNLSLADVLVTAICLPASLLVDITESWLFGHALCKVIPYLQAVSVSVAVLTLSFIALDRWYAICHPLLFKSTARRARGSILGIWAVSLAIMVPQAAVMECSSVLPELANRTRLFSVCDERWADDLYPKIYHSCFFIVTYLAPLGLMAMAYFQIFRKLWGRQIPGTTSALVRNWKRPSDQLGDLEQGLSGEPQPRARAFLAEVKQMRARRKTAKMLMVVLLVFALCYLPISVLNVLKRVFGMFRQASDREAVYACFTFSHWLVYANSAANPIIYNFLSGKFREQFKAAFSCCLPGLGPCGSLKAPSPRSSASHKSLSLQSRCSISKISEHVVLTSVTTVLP
The experiment in a line: Agonist activity at human OX1 receptor overexpressed in CHO-RD-HGA16 cells assessed as calcium mobilization at 10 uM after 15 mins by fluorescence assay relative to control. The class given is functional, cell-based.

The source made the active and inactive calls. The rule behind the calls is not given here. Where a SMILES comes first, the peptide text is derived from it.

With `CC[C@H](C)[C@H](NC(=O)CNC(=O)[C@H](C)NC(=O)[C@H](C)NC(=O)[C@H](Cc1cnc[nH]1)NC(=O)[C@H](CC(N)=O)NC(=O)CNC(=O)[C@H](C)NC(=O)CNC(=O)[C@H](Cc1cnc[nH]1)NC(=O)[C@H](CC(C)C)NC(=O)[C@H](CC(C)C)NC(=O)[C@H](CCC(=O)O)NC(=O)[C@@H](N)Cc1ccc(O)cc1)C(=O)N[C@@H](C)C(=O)N[C@H](C(=O)N[C@@H](CC(C)C)C(N)=O)[C@@H](C)O` (H-YELLHGAGNHAAGIATL-NH2), the outcome in assay [1] and in assay [2] was inactive.

As for `CC[C@H](C)[C@H](NC(=O)CNC(=O)[C@H](C)NC(=O)[C@H](C)NC(=O)[C@H](Cc1cnc[nH]1)NC(=O)[C@H](CC(N)=O)NC(=O)CNC(=O)[C@H](C)NC(=O)CNC(=O)[C@H](Cc1cnc[nH]1)NC(=O)[C@H](CC(C)C)NC(=O)[C@H](CC(C)C)NC(=O)[C@H](CCC(=O)O)NC(=O)[C@@H](N)Cc1ccc(O)cc1)C(=O)N[C@@H](CC(C)C)C(=O)N[C@@H](C)C(=O)N[C@@H](CC(C)C)C(N)=O` (H-YELLHGAGNHAAGILAL-NH2), the Percent activation at 10 uM in assay [1] was under 50%. Besides, the Calcium response at 10 uM relative to control in assay [2] is under 50%.

In the case of `CC[C@H](C)[C@H](NC(=O)CNC(=O)[C@H](C)NC(=O)[C@H](C)NC(=O)[C@H](Cc1cnc[nH]1)NC(=O)[C@H](CC(N)=O)NC(=O)CNC(=O)[C@H](C)NC(=O)CNC(=O)[C@H](Cc1cnc[nH]1)NC(=O)[C@H](CC(C)C)NC(=O)[C@H](CC(C)C)NC(=O)[C@H](CCC(=O)O)NC(=O)[C@@H](N)Cc1ccc(O)cc1)C(=O)N[C@@H](CC(C)C)C(=O)N[C@H](C(=O)N[C@@H](C)C(N)=O)[C@@H](C)O` (H-YELLHGAGNHAAGILTA-NH2), the outcome in assay [1] was inactive. Besides, the Calcium response at 10 uM relative to control in assay [2] is under 50%.
